# Test system: HER2
# Test: HER2 degradation assay with BT-474 cell line (Example 12, FACS)
# Type: cell-based
# Conditions: Homo sapiens; BT-474 cells
# Text: HER2 Degradation Assay with BT-474 Cell Line
# HER2 has emerged as a key target for anticancer drugs due to its intrinsic involvement in the phosphatidylinositol-3-kinase-Akt/protein kinase B (PI3K-Akt) and the mitogen-activated protein kinase (MAPK) pathways, both of which suppress apoptosis and promote tumor cell survival, gene transcription, angiogenesis, cellular proliferation, migration, mitosis, and differentiation. The degradation of HER2 is a measure of efficacy of anticancer therapeutics that target Hsp90. Accordingly, the SDC-TRAP molecules of the invention that comprise a binding moiety that binds Hsp90 were tested in the following HER2 degradation assay.
# BT-474 cells (human breast cancer cell line ATCC HTB-20) were obtained from ATCC and seeded into 12-well tissue culture plates at 0.2×10^6/1.8 mL/well. […] Each test compound was titrated in 4-fold dilutions from 5 μM to 78 nM with DMSO and 200 μL of the titration was added to each well of the cell plate. The DMSO final concentration was 0.2%. Cells were incubated overnight at 37° C. in 5% CO2.
# Media was decanted from the plate, cells were washed 1× in PBS. 400 μL trypsin (EDTA) per well was added, and the cells were incubated for 2 to 3 minutes. Cells were collected into FACS tubes containing 1 ml culture medium to neutralize the trypsin and were centrifuged for 5 minutes at 1200 rpm. Supernatant was decanted and the cells were resuspended in 5 μL FITC (anti HER2/nu)/200 μL staining buffer (1×PBS+1% FBS+0.05% Sodium Azide)/tube. Controls were […] IgG isotype control and staining buffer only. Tubes were incubated for 30 minutes in the dark at room temperature. 1 mL staining buffer was added to each tube and the tubes were centrifuged for 6 minutes at 1200 rpm. The supernatant was decanted and 300 μL staining buffer was added to each tube, which was store at 4° C. for FACS (cytometer) analysis. The cytometer readout was normalized and the potency of each compound is evaluated with IC50 calculated with XLfit™ software.
row,IC50,Structure (SMILES)
1,0.077 µM,"CCNC(=O)c1nnc(-c2cc(C(C)C)c(O)cc2O)n1-c1ccc(CN2CCC(C(=O)N3CCC(n4cc(-c5cnc(N)c(O[C@H](C)c6c(Cl)ccc(F)c6Cl)c5)cn4)CC3)CC2)cc1 [SDC-TRAP-0134, (R)-4-(4-((4-(4-(4-(6-amino-5-(1-(2,6-dichloro-3-fluorophenyl)ethoxy)pyridin-3-yl)-1H-pyrazol-1-yl)piperidine-1-carbonyl)piperidin-1-yl)methyl)phenyl)-5-(2,4-dihydroxy-5-isopropylphenyl)-N-ethyl-4H-1,2,4-triazole-3-carboxamide]"
2,> 5 µM,"CCNC(=O)c1nnc(-c2cc(C(C)C)c(O)cc2O)n1-c1ccc(C(=O)N2CCC(COC(=O)Nc3cccc4c3CN(C3CCC(=O)NC3=O)C4=O)CC2)cc1 (centres unmarked) [SDC-TRAP-0136, (1-(4-(3-(2,4-dihydroxy-5-isopropylphenyl)-5-(ethylcarbamoyl)-4H-1,2,4-triazol-4-yl)benzoyl)piperidin-4-yl)methyl (2-(2,6-dioxopiperidin-3-yl)-1-oxoisoindolin-4-yl)carbamate]"
3,0.707 µM,"CC(C)c1cc(-c2nnc(O)n2-c2ccc(N3CCN(C(=O)N4CCC(n5cc(-c6cnc(N)c(O[C@H](C)c7c(Cl)ccc(F)c7Cl)c6)cn5)CC4)CC3)cc2)c(O)cc1O [SDC-TRAP-0138, (R)-(4-(4-(6-amino-5-(1-(2,6-dichloro-3-fluorophenyl)ethoxy)pyridin-3-yl)-1H-pyrazol-1-yl)piperidin-1-yl)(4-(4-(3-(2,4-dihydroxy-5-isopropylphenyl)-5-hydroxy-4H-1,2,4-triazol-4-yl)phenyl)piperazin-1-yl)methanone]"

# More lines, now with the values behind:
row,Structure (SMILES),IC50
1,"CC(C)c1cc(-c2nnc(O)n2-c2ccc(CC3CCN(C(=O)COC(=O)Nc4cccc5c4CN(C4CCC(=O)NC4=O)C5=O)CC3)cc2)c(O)cc1O (centres unmarked) [SDC-TRAP-0131, 2-(4-(4-(3-(2,4-dihydroxy-5-isopropylphenyl)-5-hydroxy-4H-1,2,4-triazol-4-yl)benzyl)piperidin-1-yl)-2-oxoethyl(2-(2,6-dioxopiperidin-3-yl)-1-oxoisoindolin-4-yl)carbamate]",> 5 µM
2,"CC(C)c1cc(-c2nnc(O)n2-c2ccc(CC(=O)N(C)CCCOC(=O)Nc3cccc4c3CN(C3CCC(=O)NC3=O)C4=O)cc2)c(O)cc1O (centres unmarked) [SDC-TRAP-0132, 3-(2-(4-(3-(2,4-dihydroxy-5-isopropylphenyl)-5-hydroxy-4H-1,2,4-triazol-4-yl)phenyl)-N-methylacetamido)propyl(2-(2,6-dioxopiperidin-3-yl)-1-oxoisoindolin-4-yl)carbamate]",> 5 µM
3,"CCNC(=O)c1nnc(-c2cc(C(C)C)c(O)cc2O)n1-c1ccc(C(=O)N(C)CCOC(=O)Nc2cccc3c2CN(C2CCC(=O)NC2=O)C3=O)cc1 (centres unmarked) [SDC-TRAP-0133, 2-(4-(3-(2,4-dihydroxy-5-isopropylphenyl)-5-(ethylcarbamoyl)-4H-1,2,4-triazol-4-yl)-N-methylbenzamido)ethyl(2-(2,6-dioxopiperidin-3-yl)-1-oxoisoindolin-4-yl)carbamate]",> 10 µM
4,"CCNC(=O)c1nnc(-c2cc(C(C)C)c(O)cc2O)n1-c1ccc(C(=O)N(C)CCCOC(=O)Nc2cccc3c2CN(C2CCC(=O)NC2=O)C3=O)cc1 (centres unmarked) [SDC-TRAP-0135, 3-(4-(3-(2,4-dihydroxy-5-isopropylphenyl)-5-(ethylcarbamoyl)-4H-1,2,4-triazol-4-yl)-N-methylbenzamido)propyl(2-(2,6-dioxopiperidin-3-yl)-1-oxoisoindolin-4-yl)carbamate]",9.67 µM
5,"CC(C)c1cc(-c2nnc(O)n2-c2ccc3c(ccn3CCC3CCN(C(=O)Cn4cc(F)c(=O)[nH]c4=O)CC3)c2)c(O)cc1O [SDC-TRAP-0137, 1-(2-(4-(2-(5-(3-(2,4-dihydroxy-5-isopropylphenyl)-5-hydroxy-4H-1,2,4-triazol-4-yl)-1H-indol-1-yl)ethyl)piperidin-1-yl)-2-oxoethyl)-5-fluoropyrimidine-2,4(1H,3H)-dione]",> 5 µM

# Reference: patent publication US9956293B2, “Targeted therapeutics” (Madrigal Pharmaceuticals, Inc., priority 2014, dated 2018)
